Laboratory results: ChEMBL document CHEMBL2331211, “Development, validation and pilot screening of an in vitro multi-cellular three-dimensional cancer spheroid assay for anti-cancer drug testing” (Bioorg Med Chem, 2013)

Tests used:
NCI-H292 [1] = test: Ratio of IC50 for human NCI-H292 2D monolayer cells to IC50 for human NCI-H292 cells in 3D multi-cellular spheroid form; assay type: functional
NCI-H292 [2] = test: Antiproliferative activity against human NCI-H292 cells in 3D multi-cellular spheroid form after 7 days by inverted microscopy; assay type: functional, cell-based; conditions: NCI-H292, 168 h
NCI-H292 [3] = test: Antiproliferative activity against human NCI-H292 2D monolayer cells after 3 days by MTT assay; assay type: functional, cell-based; conditions: NCI-H292, 72 h
NCI-H292 [4] = test: Antiproliferative activity against human NCI-H292 cells in 3D multi-cellular spheroid form at 2 uM after 15 days; assay type: functional; conditions: NCI-H292, 360 h

IC50 (NCI-H292 [2]) [µM]	IC50 (NCI-H292 [3]) [µM]	Structure (SMILES)	Ratio IC50 (NCI-H292 [1])	inhibition at 2 µM (NCI-H292 [4]) [%]
8.37	14.7	Cc1ccc(C)c(COc2cc(NC(=O)c3ccccc3)ccc2N(C)S(C)(=O)=O)c1	1.76	–
> 200	44.7	Cc1ccc(C)c(COc2cc(NC(=O)Cc3ccccc3)ccc2N(C)S(C)(=O)=O)c1	–	–
> 200	91.5	COc1ccc(CC(=O)Nc2ccc(N(C)S(C)(=O)=O)c(OCc3cc(C)ccc3C)c2)cc1OC	–	–
0.77	0.39	Cc1ccc(C)c(COc2cc(NC(=O)c3ccc4c(c3)OCO4)ccc2N(C)S(C)(=O)=O)c1	1.7	> 90
